Measurements reported in patent US20250281649A1, “PROBE DIRECTED TO ENZYME ALDH1A3 AND USE THEREOF IN THE DIAGNOSIS OF GLIOBLASTOMA” (Universita' Degli Studi Del Piemonte Orientale "A. Avogadro", priority 2021, published 2025).
Read-outs that look alike come from different tables or passages of the source.

T1: ALDH1A1 (Homo sapiens, UniProt P00352)
T1 construct: His-tag; made in house; host or cells: bacterial cells
T1 sequence (P00352 1-501): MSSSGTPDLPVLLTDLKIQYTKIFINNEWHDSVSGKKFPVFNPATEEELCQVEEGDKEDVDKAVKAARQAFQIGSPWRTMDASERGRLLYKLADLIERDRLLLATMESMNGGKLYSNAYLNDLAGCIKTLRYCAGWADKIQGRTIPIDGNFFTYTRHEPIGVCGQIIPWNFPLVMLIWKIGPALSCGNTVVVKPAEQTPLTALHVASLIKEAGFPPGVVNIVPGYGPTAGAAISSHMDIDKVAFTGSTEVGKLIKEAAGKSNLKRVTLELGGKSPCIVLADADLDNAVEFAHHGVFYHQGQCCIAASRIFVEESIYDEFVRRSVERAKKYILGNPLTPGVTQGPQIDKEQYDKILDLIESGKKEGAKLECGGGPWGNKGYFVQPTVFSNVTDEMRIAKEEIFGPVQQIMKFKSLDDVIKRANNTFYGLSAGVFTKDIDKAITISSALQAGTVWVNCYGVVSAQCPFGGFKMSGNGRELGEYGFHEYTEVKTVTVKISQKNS

T2: ALDH1A2 (Homo sapiens, UniProt O94788)
T2 construct: His-tag; made in house; host or cells: bacterial cells
T2 sequence (O94788 1-518): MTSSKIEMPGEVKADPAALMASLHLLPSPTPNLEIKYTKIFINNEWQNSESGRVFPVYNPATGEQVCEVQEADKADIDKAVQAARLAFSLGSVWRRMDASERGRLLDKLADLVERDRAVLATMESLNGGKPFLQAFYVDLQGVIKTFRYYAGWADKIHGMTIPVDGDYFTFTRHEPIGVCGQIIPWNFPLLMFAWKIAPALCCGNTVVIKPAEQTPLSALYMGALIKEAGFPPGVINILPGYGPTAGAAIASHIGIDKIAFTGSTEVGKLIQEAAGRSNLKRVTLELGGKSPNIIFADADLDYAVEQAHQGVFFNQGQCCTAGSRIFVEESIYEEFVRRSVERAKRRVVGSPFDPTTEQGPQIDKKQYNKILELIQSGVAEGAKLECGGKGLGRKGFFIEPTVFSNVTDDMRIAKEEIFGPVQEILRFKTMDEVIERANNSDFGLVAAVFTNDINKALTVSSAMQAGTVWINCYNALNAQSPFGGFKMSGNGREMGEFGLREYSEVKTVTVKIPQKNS

T3: ALDH1A3 (Homo sapiens, UniProt P47895)
T3 construct: His-tag; made in house; host or cells: bacterial cells
T3 sequence (P47895 1-512): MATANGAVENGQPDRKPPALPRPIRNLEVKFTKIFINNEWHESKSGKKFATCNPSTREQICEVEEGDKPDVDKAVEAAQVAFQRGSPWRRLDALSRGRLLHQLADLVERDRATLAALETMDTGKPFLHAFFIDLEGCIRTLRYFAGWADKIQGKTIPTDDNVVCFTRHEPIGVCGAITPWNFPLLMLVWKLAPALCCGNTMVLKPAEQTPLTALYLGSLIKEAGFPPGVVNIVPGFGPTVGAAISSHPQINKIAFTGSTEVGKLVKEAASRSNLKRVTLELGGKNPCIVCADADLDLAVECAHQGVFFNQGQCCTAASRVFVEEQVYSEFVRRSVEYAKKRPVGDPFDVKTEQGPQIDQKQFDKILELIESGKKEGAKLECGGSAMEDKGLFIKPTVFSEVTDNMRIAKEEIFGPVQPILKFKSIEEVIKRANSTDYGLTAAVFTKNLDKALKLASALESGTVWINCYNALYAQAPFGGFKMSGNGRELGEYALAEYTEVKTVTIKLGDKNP

B1: ALDH1A1 (Homo sapiens) (protein)
chain: T1 sequence (P00352 1-501)
notes: His-tag; made in house; host or cells: bacterial cells
B2: ALDH1A2 (Homo sapiens) (protein)
chain: T2 sequence (O94788 1-518)
notes: as for B1

What was measured:
ALDH1A1 [1] = biological target: T1, ALDH1A1; assay: IC50 evaluation, NADH formation at 340 nm (Tecan SUNRISE); format: biochemical
Method: (§1) A common protocol to express and purify all three members of the ALDHIA subfamily has been optimized. Briefly, induced cells, collected by centrifugation, were re-suspended in an appropriate volume of lysis buffer (50 mM Na2HPO4, 300 mM NaCl, 1 mM β-mercaptoethanol, 20 mM imidazole, pH 7.5) added of benzonase nuclease (250 U/μL) and Protease inhibitor cocktail from SIGMA. After ultracentrifugation, the clarified sample was purified by a His-tag affinity chromatography followed by size-exclusion chromatography, using an AKTA FPLC system, at 4° C. To evaluate the purity and homogeneity of the protein, after each purification step, eluted d fractions were analyzed by SDS-PAGE and the protein quantification was always determined by Bradford protein assay.
(§2) IC50 evaluation: on a Tecan—SUNRISE, probe 13 was tested in a serial dilution series from 200 μM to 3, 125 μM, against all the three isoenzymes. The recipe of reaction buffer was: 20 mM Tris HCl pH=8, 150 mM KCl, 1 mM B-mercaptoethanol, 500 μM NAD^+, 15% DMSO fixed, 20 mM acetaldehyde and 2.7 μM each isoenzyme. The analysis was conducted measuring the NADH formation, that has a specific absorbance wavelength (340 nm). The test was performed in triplicate with all the three isoenzymes.

ALDH1A2 [2] = biological target: T2, ALDH1A2; assay: as above; format: biochemical; settings: 20 mM acetaldehyde, 500 μM NAD+, 15% DMSO, 2.7 μM isoenzyme
Method: as §1, §2

ALDH1A3 [3] = biological target: T3, ALDH1A3; assay: as above; format: biochemical
Method: as §1, §2

ALDH1A1 [4] = biological target: T1, ALDH1A1; assay: KD evaluation by probe fluorescence (Tecan SPARK); format: binding; settings: probe fixed at 10 μM, isoenzyme 100 μM to 1 μM
Method: as §1
(§3) KD evaluation: on a Tecan—SPARK, probe 14 and 13 were tested at a fixed concentration of 10 μM. All the isoenzymes were tested in wide range of concentrations (from 100 μM to 1 μM). The analysis was settled with a BW of 20, monitoring the Em wavelength in range comprised between 520 and 535 nm for probe 14 and 520 and 580 nm for probe 13. The Ex was fixed at 420 nm for probe 14 and 440 nm for probe 13. The test was performed in quadruplicate with all the three isoenzymes. The recipe of the buffer reaction was the same as described before.

ALDH1A2 [5] = biological target: T2, ALDH1A2; assay: KD evaluation by probe fluorescence (Tecan SPARK); format: binding; settings: probe fixed at 10 μM, isoenzyme 100 μM to 1 μM
Method: as §1, §3

ALDH1A3 [6] = biological target: T3, ALDH1A3; assay: KD evaluation by probe fluorescence (Tecan SPARK); format: binding
Method: as §1, §3

ALDH1A3 [7] = biological target: T3, ALDH1A3; assay: Fluorescence of probes in buffer and in complex with the isoenzymes (Tecan SPARK); format: binding; settings: in complex with the three isoenzymes, in particular ALDH1A3
Method: All five compounds were dissolved in DMSO (100%) to obtain two different initial stocks, one at 10 mM and a second one at 1 mM. […] The assay can be executed at a maximum DMSO percentage of 15%. The maximum probe concentration tested was 500 uM—15% DMSO. All the compounds were tested using a Tecan—SPARK, to analyze their absorbance, excitation and emission wavelength. Based on the literature, the absorbance of the curcumin by itself is comprised between 420 and 425 nm. At first, we measured the absorbance, and from those values, we performed a 3D analysis to highlights the correct Ex and Em wavelengths. To avoid any possible background in the fluorescence signal we performed a screening of every possible buffer used in our assays.

[8] = substrate: COc1cc(/C=C/C(=O)/C=C(O)/C=C/c2ccc(OCc3cn(CCOc4ccc(C=O)cc4)nn3)c(OC)c2)ccc1O; assay: KM evaluation, compound as possible substrate, NADH formation; format: biochemical, human; settings: 5% DMSO, pH 7.5
Method: as §1
KM evaluation: on a Tecan—SUNRISE, due to the inconsistency of result of the KD evaluation with probe 13 and to its chemistry nature (benzaldehyde), we performed an analysis to evaluate this compound possible substrate. The compound was tested in a serial dilution from 300 to 3.125 μM, at 5% DMSO. The analysis was conducted measuring the NADH formation, that has a specific absorbance wavelength (340 nm). The recipe of the buffer reaction was the same as described before. The assay was performed only for ALDH1A1 and ALDH1A2. The test was performed in triplicate with all the three isoenzymes.

[9] = ALDH1A1, 20 mM acetaldehyde, 500 μM NAD+, 15% DMSO, 2.7 μM isoenzyme, read-out: IC50
[10] = ALDH1A3, 20 mM acetaldehyde, 500 μM NAD+, 15% DMSO, 2.7 μM isoenzyme, read-out: IC50
[11] = ALDH1A3, probe fixed at 10 μM, isoenzyme 100 μM to 1 μM, read-out: KD

| Molecule | IC50 (ALDH1A1 [1]; [9]) [µM] | IC50 (ALDH1A2 [2]) | IC50 (ALDH1A3 [3]; [10]) [µM] | Kd (ALDH1A1 [4]) [µM] | Kd (ALDH1A3 [6]; [11]) [µM] | increase of fluorescence in complex with the isoenzymes (ALDH1A3 [7]) | other results |
| --- | --- | --- | --- | --- | --- | --- | --- |
| COc1cc(/C=C/C(O)=C/C(=O)/C=C/c2ccc(N(C)C)cc2)ccc1OCc1cn(CCOc2ccc(C=O)cc2)nn1 [Compound 15] | 28.5 | N.I. | 5.1 | 23.9 | 20.4 | no good result | Kd (ALDH1A2 [5]): 8.7 µM |
| CCOP(=O)(OCC)Oc1ccc(/C=C/C(=O)/C=C(O)/C=C/c2ccc(OCc3cn(CCOc4ccc(C=O)cc4)nn3)c(OC)c2)cc1OC [Compound 16] |  | N.I. |  |  |  | no good result | IC50 (ALDH1A1 [1]): 150 µM; IC50 (ALDH1A3 [3]): 8.5 µM; Kd (ALDH1A3 [6]): 55.7 µM |
| CCOC(=O)Cn1cc(COc2ccc(C=CC(=O)C=C(O)C=Cc3ccc(OP(=O)(OCC)OCC)c(OC)c3)cc2OC)nn1 [Compound 17] | 70.1 | N.I. | 158 | 18.1 | 14.9 |  |  |
| B1 |  |  |  |  |  |  | Km ([8]; other: ALDH1A1, 300 to 3.125 μM): 255.2 µM |
| B2 |  |  |  |  |  |  | Km ([8]; other: ALDH1A2, 300 to 3.125 μM): 220.0 µM |
